Biological target: T1, cAMP and cAMP-inhibited cGMP 3',5'-cyclic phosphodiesterase 10A (Rattus norvegicus, UniProt Q9QYJ6)
T1 sequence (Q9QYJ6 whole entry): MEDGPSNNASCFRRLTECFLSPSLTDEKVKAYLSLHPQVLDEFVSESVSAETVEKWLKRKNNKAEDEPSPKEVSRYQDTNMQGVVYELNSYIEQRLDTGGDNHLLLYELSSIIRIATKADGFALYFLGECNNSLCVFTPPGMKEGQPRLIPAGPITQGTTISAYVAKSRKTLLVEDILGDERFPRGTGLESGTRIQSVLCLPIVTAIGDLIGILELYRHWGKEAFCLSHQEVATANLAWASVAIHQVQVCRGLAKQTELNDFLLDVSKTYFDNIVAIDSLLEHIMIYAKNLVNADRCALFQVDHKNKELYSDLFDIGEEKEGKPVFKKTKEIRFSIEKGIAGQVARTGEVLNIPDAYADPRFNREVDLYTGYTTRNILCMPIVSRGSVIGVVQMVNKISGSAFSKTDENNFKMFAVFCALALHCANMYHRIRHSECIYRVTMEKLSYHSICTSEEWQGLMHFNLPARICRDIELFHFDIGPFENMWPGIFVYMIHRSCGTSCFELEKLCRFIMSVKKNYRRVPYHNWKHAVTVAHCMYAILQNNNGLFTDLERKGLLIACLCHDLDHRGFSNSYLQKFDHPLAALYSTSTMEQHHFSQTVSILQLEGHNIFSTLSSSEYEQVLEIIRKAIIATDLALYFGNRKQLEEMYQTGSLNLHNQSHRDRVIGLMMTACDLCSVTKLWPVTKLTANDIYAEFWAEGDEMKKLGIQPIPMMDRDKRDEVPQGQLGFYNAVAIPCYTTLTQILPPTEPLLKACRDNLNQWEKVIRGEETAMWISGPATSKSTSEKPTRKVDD
Test: The products of Examples 1-175 were tested in the assay described below.PDE10 activity was measured using a scintillation assay (SPA-based method) similar to that previously described by Seeger, T. F. et al., Brain Research 985 (2003) 113-126. The compounds' relative activity as PDE10 inhibitors was investigated by assaying a fixed amount of enzyme in the presence of the test compound and low substrate concentration (cAMP) such that an IC50 could be determined. […] The assay is performed in a 384-well format with 50 uL assay buffer (50 mM TRIS pH 7.5; 1.3 mM MgCl2; 0.01% Brij) containing enough PDE10.

IC50: 2.7 nM
SMILES: CCc1nn(C)c2c1CN(c1ncnn3c(C)nc(-c4cccc(OC)c4)c13)CC2
